Assay [1] concerns human glioblastoma cells transfected with APPsw. As to the kind of experiment: APP processing, Aβ1-40 production in culture medium by ELISA. Format: cell-based. The method, then:
Production of Aβ1-40 in the culture medium was measured by ELISA.
A general note: In an ELISA, binding on a coated surface is turned into a signal by an enzyme label.

Assay [2] has as its system N9 murine microglial cells. As to the kind of experiment: LPS-induced microglial activation in vitro, TNF-α production by ELISA. Format: cell-based, mouse. The method, then:
Microglial activation is determined by TNF-α production (pg/ml) measured by ELISA;
N9 murine micoglial cells are well characterized scavenger murine microglial clones derived from embryonic mouse brain. The extent of microglial activation was determined by TNF-α production (pg/ml) measured by ELISA.

Assay [3] deals with human neuronal progenitor cells (HNPC). Kind of assay: Aβ neurotoxicity, LDH release from cells treated with pre-aggregated Aβ1-40. To be noted: 100 nM nilvadipine along with 30 μM AgAβ, three days. In kind it is cell-based. The method, then: Neurotoxicity is assessed by measuring the amount of lactic dehydrogenase (LDH) released from cells;
HNPC cells differentiate into neurons readily upon treatment with cyclic AMP. Cyclic AMP (1 mM) (Sigma) was added to the culture medium and the HNPC cells were incubated at 37° C. for 48 hours or more under serum free conditions. […] Neurotoxicity was assessed by measuring the amount of lactic dehydrogenase (LDH; an intracellular enzyme found in all cells) released from the cells.

The subject of assay [4] is plasma Aβ in TgPS/APPsw mice. Kind of assay: Plasma Aβ levels in TgPS/APPsw mice, human Aβ1-40 ELISA. Format: in vivo, mouse. To be noted: 1.5 mg/kg I.P. every day for three and one half weeks; 2 year old TgPS/APPsw mice. The method, then: Following this treatment, 100 μl of blood were collected from the tail vein of the animals using EDTA (4%) as an anticoagulant. Blood samples were centrifuged at 4000 g for 1 min and the plasma was collected and diluted four times before being assayed for human Aβ1-40 using a commercially available human Aβ1-40 ELISA (Biosource, CA).

The structures appear in SMILES notation.

In the case of `COC(=O)C1=C(C#N)NC(C)=C(C(=O)OC(C)C)C1c1cccc([N+](=O)[O-])c1` (stereo not drawn) [nilvadipine, isopropyl-3-methyl-2-cyano-1,4-dihydro-6-methyl-4-(m-nitrophenyl)-3,5-pyridine-dicarboxylate], the “reduction of Aβ1-40 production” value in assay [1] (50 nM, 24 hours) is “about 9%”; in assay [1] (50 nM, 48 hours) it was “about 18%”; in assay [1] (250 nM, 24 hours), “about 15%”; in assay [1] (250 nM, 48 hours), “about 5%”. Also, the TNF-α production result in assay [2] (50 nM nilvadipine, no LPS, N9 cells) is given as “about 40 pg/ml”; in assay [2] (1 μg/ml LPS plus 50 nM nilvadipine, 24 hours, N9 cells (LPS alone about 820 pg/ml)), “about 670 pg/ml”; in assay [2] (LPS plus 500 nM nilvadipine, 24 hours, N9 cells (LPS alone about 820 pg/ml)), “about 610 pg/ml”. Further, the “decrease in LDH release” value in assay [3] is on record as “about 44%”. For the same compound, the “increase in plasma levels of Aβ compared to control animals” value in assay [4] is listed as 42%.

Source of the values: patent publication US7732467B2, “Method for reducing amyloid deposition, amyloid neurotoxicity and microgliosis” (Alzheimer's Institute of America, Inc., priority 2003, dated 2010).
